Assay results: ChEMBL document CHEMBL5365532, “Discovery of Triazinone Derivatives as Novel, Specific, and Direct NLRP3 Inflammasome Inhibitors for the Treatment of DSS-Induced Ulcerative Colitis” (J Med Chem, 2023)
The source made the active and inactive calls. The rule behind the calls is not given here.

How the values were obtained:
THP-1 [1] = experiment: Inhibition of lysosomal damage in PMA-differentiated human THP-1 cells at 0.2 to 45 uM pretreated with LPS for 3 hrs followed by incubation with compound for 40 mins and later stimulated with nigericin for 35 mins by AO staining based analysis; assay type: functional, cell-based; conditions: dose 0.2-45 µM, time 75.0 min
[2] = Tmax in BALB/c mouse at 10 mg/kg, po; assay type: ADME, organism-based; conditions: in vivo
Mus musculus [3] = experiment: Antiinflammatory activity against DSS-induced ulcerative colitis C57BL/6 mouse model assessed as decrease in NLRP3 protein expression in colon at 30 mg/kg, ip fed with DSS for 6 days followed by administration with compound for 5 days and measured on day 11 by western blot analysis; assay type: functional, organism-based; conditions: time 5.0 day
[4] = Oral bioavailability in BALB/c mouse at 10 mg/kg; assay type: ADME, organism-based; conditions: in vivo
Homo sapiens = organism: Homo sapiens; experiment: Binding affinity to N-terminal GST-tagged human NLRP3deltaLRR mutant (1 to 649 residues) expressed in Escherichia coli BL21 assessed as increase in protein thermal stability at 10 to 20 uM at 48 to 72 degC by CETSA analysis; conditions: dose 10-20 µM
[5] = molecular target: NACHT, LRR and PYD domains-containing protein 3 (Mus musculus) (UniProt Q8R4B8); experiment: Inhibition of NLRP3 inflammasome in C57BL/6 mouse BMDM cells assessed as inhibition of LPS/alum-induced IL-1 beta secretion at 0.2 to 0.8 uM pretreated with LPS for 3 hrs followed by incubation with compound for 40 mins and later stimulated with alum for 4 hrs by ELISA; assay type: cell-based; conditions: dose 0.2-0.8 µM, time 280.0 min
NACHT, LRR and PYD domains-containing protein 3 (Mus musculus), sequence (Q8R4B8 whole entry, the tested form may be a part): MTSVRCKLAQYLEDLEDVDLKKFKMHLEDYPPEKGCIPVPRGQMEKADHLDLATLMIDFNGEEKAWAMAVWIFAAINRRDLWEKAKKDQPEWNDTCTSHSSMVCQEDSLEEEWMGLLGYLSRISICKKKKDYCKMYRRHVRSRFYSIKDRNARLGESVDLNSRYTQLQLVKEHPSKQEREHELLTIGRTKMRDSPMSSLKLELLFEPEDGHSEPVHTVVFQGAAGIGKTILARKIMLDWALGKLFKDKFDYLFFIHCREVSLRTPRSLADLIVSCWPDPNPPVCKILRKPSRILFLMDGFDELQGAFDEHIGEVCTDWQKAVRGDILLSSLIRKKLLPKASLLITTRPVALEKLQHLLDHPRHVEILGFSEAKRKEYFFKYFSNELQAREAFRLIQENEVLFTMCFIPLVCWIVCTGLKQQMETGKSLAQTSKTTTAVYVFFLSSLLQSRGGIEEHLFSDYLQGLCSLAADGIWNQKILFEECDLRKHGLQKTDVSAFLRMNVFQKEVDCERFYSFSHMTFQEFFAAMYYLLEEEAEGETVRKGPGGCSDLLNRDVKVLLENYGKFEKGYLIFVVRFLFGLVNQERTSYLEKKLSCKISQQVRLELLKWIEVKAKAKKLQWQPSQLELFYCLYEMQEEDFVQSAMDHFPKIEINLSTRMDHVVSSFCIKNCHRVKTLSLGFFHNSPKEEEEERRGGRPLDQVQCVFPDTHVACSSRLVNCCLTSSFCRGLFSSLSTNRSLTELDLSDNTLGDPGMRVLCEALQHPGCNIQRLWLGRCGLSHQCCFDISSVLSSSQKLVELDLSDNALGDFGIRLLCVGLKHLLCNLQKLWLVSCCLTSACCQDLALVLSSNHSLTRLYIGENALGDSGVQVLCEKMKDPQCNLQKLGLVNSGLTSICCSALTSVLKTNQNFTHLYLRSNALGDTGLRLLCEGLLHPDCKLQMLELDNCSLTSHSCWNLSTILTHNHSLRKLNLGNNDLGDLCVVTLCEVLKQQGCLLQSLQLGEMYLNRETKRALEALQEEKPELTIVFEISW

THP-1 [6] = experiment: Inhibition of K+ efflux in PMA-differentiated human THP-1 cells at 0.8 to 45 uM pretreated with LPS for 3 hrs followed by incubation with compound for 40 mins and later stimulated with nigericin for 35 mins; assay type: functional, cell-based; conditions: dose 0.8-45 µM, time 75.0 min
[7] = Half life in BALB/c mouse at 10 mg/kg, po; assay type: ADME, organism-based; conditions: in vivo
THP-1 [8] = experiment: Effect on pro-IL-1beta protein expression in PMA-differentiated human THP-1 cells at 0.2 to 0.8 uM pretreated with compound for 40 mins followed by LPS challenge for 3 hrs by western blot analysis; assay type: functional, cell-based; conditions: dose 0.2-0.8 µM, time 220.0 min
[9] = molecular target: T1, Interferon-inducible protein AIM2 (Mus musculus) (UniProt Q91VJ1); experiment: Inhibition of AIM2 inflammasome in C57BL/6 mouse BMDM cells assessed as inhibition of LPS/poly(dA:dT)-induced IL-1 beta secretion at 0.2 to 0.8 uM pretreated with LPS for 3 hrs followed by incubation with compound for 40 mins and later stimulated with poly(dA:dT) for 6 hrs by ELISA; assay type: cell-based; conditions: dose 0.2-0.8 µM, time 400.0 min
T1 sequence (whole entry): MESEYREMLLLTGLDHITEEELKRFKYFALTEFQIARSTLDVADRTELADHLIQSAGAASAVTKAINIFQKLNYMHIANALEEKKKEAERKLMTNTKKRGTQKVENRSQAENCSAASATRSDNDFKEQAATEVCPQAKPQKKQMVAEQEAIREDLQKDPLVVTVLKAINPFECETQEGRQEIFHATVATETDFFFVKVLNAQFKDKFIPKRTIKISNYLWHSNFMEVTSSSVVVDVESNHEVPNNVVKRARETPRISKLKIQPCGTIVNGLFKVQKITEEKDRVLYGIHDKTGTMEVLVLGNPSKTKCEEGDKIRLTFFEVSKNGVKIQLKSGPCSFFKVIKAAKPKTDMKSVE

THP-1 [10] = experiment: Effect on NLRP3 protein expression in PMA-differentiated human THP-1 cells at 0.2 to 0.8 uM pretreated with LPS for 3 hrs followed by incubation with compound for 40 mins and later stimulated with nigericin for 35 mins by western blot analysis; assay type: functional, cell-based; conditions: dose 0.2-0.8 µM, time 75.0 min
[11] = molecular target: NLR family CARD domain-containing protein 4 (Mus musculus) (UniProt Q3UP24); experiment: Inhibition of NLRC4 inflammasome in C57BL/6 mouse BMDM cells assessed as inhibition of LPS/flagellin-induced IL-1 beta secretion at 0.2 to 0.8 uM pretreated with LPS for 3 hrs followed by incubation with compound for 40 mins and later stimulated with flagellin for 6 hrs by ELISA; assay type: cell-based; conditions: dose 0.2-0.8 µM, time 400.0 min
NLR family CARD domain-containing protein 4 (Mus musculus), sequence (Q3UP24 whole entry, the tested form may be a part): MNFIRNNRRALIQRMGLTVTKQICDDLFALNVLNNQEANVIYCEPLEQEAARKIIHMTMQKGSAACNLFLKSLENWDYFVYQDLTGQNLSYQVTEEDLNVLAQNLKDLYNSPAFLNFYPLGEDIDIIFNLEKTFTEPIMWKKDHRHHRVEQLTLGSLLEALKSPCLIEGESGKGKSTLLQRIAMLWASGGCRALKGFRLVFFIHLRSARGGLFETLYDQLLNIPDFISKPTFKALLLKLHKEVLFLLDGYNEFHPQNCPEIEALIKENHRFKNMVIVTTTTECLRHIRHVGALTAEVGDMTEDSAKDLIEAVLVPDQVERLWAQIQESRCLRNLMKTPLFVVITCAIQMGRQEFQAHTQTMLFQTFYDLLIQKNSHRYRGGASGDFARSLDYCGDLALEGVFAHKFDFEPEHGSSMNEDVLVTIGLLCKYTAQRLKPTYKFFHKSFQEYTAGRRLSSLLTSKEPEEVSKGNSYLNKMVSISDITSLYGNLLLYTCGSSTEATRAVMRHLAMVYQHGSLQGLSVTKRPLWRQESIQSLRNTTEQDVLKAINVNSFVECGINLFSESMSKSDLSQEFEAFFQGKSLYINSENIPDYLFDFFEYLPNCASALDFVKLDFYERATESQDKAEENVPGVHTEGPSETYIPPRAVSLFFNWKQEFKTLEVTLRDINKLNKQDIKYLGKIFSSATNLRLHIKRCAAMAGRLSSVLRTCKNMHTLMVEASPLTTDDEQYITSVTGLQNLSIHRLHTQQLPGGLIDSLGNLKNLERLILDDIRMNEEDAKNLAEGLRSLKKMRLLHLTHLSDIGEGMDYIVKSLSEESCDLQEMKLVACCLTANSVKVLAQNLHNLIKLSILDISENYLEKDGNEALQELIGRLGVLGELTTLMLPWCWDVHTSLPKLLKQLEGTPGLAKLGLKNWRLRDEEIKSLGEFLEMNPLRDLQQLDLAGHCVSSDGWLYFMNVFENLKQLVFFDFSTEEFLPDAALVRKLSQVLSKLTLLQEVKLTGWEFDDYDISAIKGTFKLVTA

THP-1 [12] = experiment: Cytotoxicity against PMA-differentiated human THP-1 cells assessed as cell viability at 0.16 to 20 uM incubated for 24 hrs by CCK8 assay; assay type: toxicity, cell-based; conditions: thp-1, 24 h, dose 0.16-20 µM
[13] = Cmax in BALB/c mouse at 10 mg/kg, iv; assay type: ADME, organism-based; parameters: dose 10 mg/kg, route iv; conditions: in vivo
[14] = MRT (0 to t) in BALB/c mouse at 10 mg/kg, po; assay type: ADME, organism-based; conditions: in vivo
Mus musculus [15] = experiment: Antiinflammatory activity against DSS-induced ulcerative colitis C57BL/6 mouse model assessed as decrease in IL-1 beta level in colon at 10 to 30 mg/kg, ip fed with DSS for 6 days followed by administration with compound for 5 days and measured on day 11 by ELISA; assay type: functional, organism-based; conditions: dose 10-30 mg/kg, time 5.0 day
[16] = molecular target: NACHT, LRR and PYD domains-containing protein 3 (Mus musculus) (UniProt Q8R4B8); experiment: Inhibition of NLRP3 inflammasome in C57BL/6 mouse BMDM cells assessed as inhibition of LPS/ATP-induced IL-1 beta secretion at 0.2 to 0.8 uM pretreated with LPS for 3 hrs followed by incubation with compound for 40 mins and later stimulated with ATP for 1 hr by ELISA; assay type: cell-based; conditions: dose 0.2-0.8 µM, time 100.0 min
[17] = AUC (0 to t) in BALB/c mouse at 10 mg/kg, iv; assay type: ADME, organism-based; parameters: dose 10 mg/kg, route iv; conditions: in vivo
[18] = molecular target: NACHT, LRR and PYD domains-containing protein 3 (Mus musculus) (UniProt Q8R4B8); experiment: Inhibition of NLRP3 inflammasome in C57BL/6 mouse BMDM cells assessed as inhibition of LPS/MSU-induced IL-1 beta secretion at 0.2 to 0.8 uM pretreated with LPS for 3 hrs followed by incubation with compound for 40 mins and later stimulated with MSU for 12 hrs by ELISA; assay type: cell-based; conditions: dose 0.2-0.8 µM, time 760.0 min
Mus musculus [19] = experiment: Antiinflammatory activity against DSS-induced ulcerative colitis C57BL/6 mouse model assessed as decrease in TNF-alpha level in colon at 10 to 30 mg/kg, ip fed with DSS for 6 days followed by administration with compound for 5 days and measured on day 11 by ELISA; assay type: functional, organism-based; conditions: dose 10-30 mg/kg, time 5.0 day
THP-1 [20] = experiment: Inhibition of Cl- efflux in PMA-differentiated human THP-1 cells at 0.8 to 45 uM pretreated with LPS for 3 hrs followed by incubation with compound for 40 mins and later stimulated with nigericin for 35 mins; assay type: functional, cell-based; conditions: dose 0.8-45 µM, time 75.0 min
[21] = Cmax in BALB/c mouse at 10 mg/kg, po; assay type: ADME, organism-based; parameters: dose 10 mg/kg, route po; conditions: in vivo
BMDM = experiment: Cytotoxicity against C57BL/6 mouse BMDM cells assessed as cell viability at 0.16 to 20 uM incubated for 24 hrs by CCK8 assay; assay type: toxicity, cell-based; conditions: dose 0.16-20 µM
THP-1 [22] = experiment: Effect on ASC protein expression in PMA-differentiated human THP-1 cells at 0.2 to 0.8 uM pretreated with LPS for 3 hrs followed by incubation with compound for 40 mins and later stimulated with nigericin for 35 mins by western blot analysis; assay type: functional, cell-based; conditions: dose 0.2-0.8 µM, time 75.0 min
THP-1 [23] = experiment: Effect on mitochondrial ROS production in PMA-differentiated human THP-1 cells at 0.2 to 45 uM pretreated with LPS for 3 hrs followed by incubation with compound for 40 mins and later stimulated with nigericin for 35 mins by MitoSOX staining based immunofluorescence analysis; assay type: functional, cell-based; conditions: dose 0.2-45 µM, time 75.0 min
[24] = Half life in BALB/c mouse at 10 mg/kg, iv; assay type: ADME, organism-based; conditions: in vivo

With `CC(C)c1nn(Cc2nnc(-c3ccc(C(F)(F)F)nc3Cl)o2)c(=O)c2cc3sc(Cl)cc3n12` the inhibition (THP-1 [1]) was “inactive”, the Tmax [2] was 1 h and the Activity (Mus musculus [3]) was “Active”. For the same compound, the bioavailability [4] was 22.5%, the Activity (Homo sapiens) was “Active” and the inhibition [5] was “Active”. The inhibition (THP-1 [6]) was “inactive”, the half-life [7] was 1.31 h and the Activity (THP-1 [8]) was “inactive”. The inhibition [9] was “inactive”, the Activity (THP-1 [10]) was “inactive” and the inhibition [11] was “inactive”. The Activity (THP-1 [12]) was “Non-Toxic”, the Cmax [13] was 3890 ng/mL and the MRT last [14] was 3.27 h. The Activity (Mus musculus [15]) was “Active”, the inhibition [16] was “Active” and the AUC(0-t) [17] was 5210 ng·h/mL. The inhibition [18] was “Active”, the Activity (Mus musculus [19]) was “Active” and the inhibition (THP-1 [20]) was “inactive”. The Cmax [21] was 437 ng/mL, the Activity (BMDM) was “Non-Toxic” and the Activity (THP-1 [22]) was “inactive”. The Activity (THP-1 [23]) was “inactive” and the half-life [24] was 2.06 h.
